Laboratory results reported in patent US7981901B2, “Compositions and methods for targeting cerebral circulation and treatment of headache” (priority 2001, dated 2011).

What was measured:
[1] = system: headache; test: Topical NSAID formulations in treatment of headache (inventors' observation); type: in vivo, human; conditions: topically applied to tender spot or area superficial to carotid, temporal and/or vertebral artery
Excerpt: Especially preferred compositions include a xanthine derivative in a concentration of about 4% (wt) to 70% (wt) and ketoprofen in a concentration of about 0.5% (wt) to 50% (wt). With respect to the xanthine derivative, the same considerations as described above apply. Furthermore, such particularly preferred compositions may be formulated in a lecithin-containing formulation or a pluronic-lecithin-organogel formulation (supra). It should be especially recognized, that compositions including a xanthine derivative or an NSAID have generally been described in the art. However, the inventors observed that formulations including an NSAID other than Ketoprofen generally fail to provide relief in treatment of a headache, when topically applied to a person (either to a tender spot, or to an area superficial to a carotid artery, a temporal artery and/or a vertebral artery). […] While not wishing to be bound by a particular hypothesis or theory, the inventors contemplate that the effect of Ketoprofen may be at least in part mediated by a muscle-relaxant effect rather than via a suppressive effect in inflammation.

[2] = system: fever; conditions: oral delivery; cited from earlier work

Compound	relief in treatment of a headache [1]	time to achieve sufficient concentration in the plasma to lower the fever [2]
CC(C(=O)O)c1cccc(C(=O)c2ccccc2)c1 (centres unmarked) [Ketoprofen, 2-(meta-benzoylphenyl)propionic acid]	the only NSAID effective in treatment of a headache	–
CC(=O)Nc1ccc(O)cc1 [acetaminophen, Acetaminophen]	–	at least 20 minutes
